In ChEMBL document CHEMBL2331439 (J Med Chem, 2013):

Key:
[1] = target: MAP kinase-activated protein kinase 2 (Homo sapiens, UniProt P49137); experiment: Inhibition of recombinant MAPKAPK2 (unknown origin) by FRET-based Z'-LYTE assay
[2] = target: Vascular endothelial growth factor receptor 2 (Homo sapiens, UniProt P35968); experiment: Inhibition of recombinant KDR (unknown origin) by FRET-based Z'-LYTE assay
[3] = target: Mitogen-activated protein kinase 14 (Homo sapiens, UniProt Q16539); experiment: Inhibition of recombinant MAPK14 (unknown origin) by FRET-based Z'-LYTE assay
[4] = target: T1, Serine/threonine-protein kinase Nek1 (Homo sapiens, UniProt Q96PY6); experiment: Inhibition of recombinant NEK1 (unknown origin) by FRET-based Z'-LYTE assay
T1 sequence (Q96PY6 whole entry): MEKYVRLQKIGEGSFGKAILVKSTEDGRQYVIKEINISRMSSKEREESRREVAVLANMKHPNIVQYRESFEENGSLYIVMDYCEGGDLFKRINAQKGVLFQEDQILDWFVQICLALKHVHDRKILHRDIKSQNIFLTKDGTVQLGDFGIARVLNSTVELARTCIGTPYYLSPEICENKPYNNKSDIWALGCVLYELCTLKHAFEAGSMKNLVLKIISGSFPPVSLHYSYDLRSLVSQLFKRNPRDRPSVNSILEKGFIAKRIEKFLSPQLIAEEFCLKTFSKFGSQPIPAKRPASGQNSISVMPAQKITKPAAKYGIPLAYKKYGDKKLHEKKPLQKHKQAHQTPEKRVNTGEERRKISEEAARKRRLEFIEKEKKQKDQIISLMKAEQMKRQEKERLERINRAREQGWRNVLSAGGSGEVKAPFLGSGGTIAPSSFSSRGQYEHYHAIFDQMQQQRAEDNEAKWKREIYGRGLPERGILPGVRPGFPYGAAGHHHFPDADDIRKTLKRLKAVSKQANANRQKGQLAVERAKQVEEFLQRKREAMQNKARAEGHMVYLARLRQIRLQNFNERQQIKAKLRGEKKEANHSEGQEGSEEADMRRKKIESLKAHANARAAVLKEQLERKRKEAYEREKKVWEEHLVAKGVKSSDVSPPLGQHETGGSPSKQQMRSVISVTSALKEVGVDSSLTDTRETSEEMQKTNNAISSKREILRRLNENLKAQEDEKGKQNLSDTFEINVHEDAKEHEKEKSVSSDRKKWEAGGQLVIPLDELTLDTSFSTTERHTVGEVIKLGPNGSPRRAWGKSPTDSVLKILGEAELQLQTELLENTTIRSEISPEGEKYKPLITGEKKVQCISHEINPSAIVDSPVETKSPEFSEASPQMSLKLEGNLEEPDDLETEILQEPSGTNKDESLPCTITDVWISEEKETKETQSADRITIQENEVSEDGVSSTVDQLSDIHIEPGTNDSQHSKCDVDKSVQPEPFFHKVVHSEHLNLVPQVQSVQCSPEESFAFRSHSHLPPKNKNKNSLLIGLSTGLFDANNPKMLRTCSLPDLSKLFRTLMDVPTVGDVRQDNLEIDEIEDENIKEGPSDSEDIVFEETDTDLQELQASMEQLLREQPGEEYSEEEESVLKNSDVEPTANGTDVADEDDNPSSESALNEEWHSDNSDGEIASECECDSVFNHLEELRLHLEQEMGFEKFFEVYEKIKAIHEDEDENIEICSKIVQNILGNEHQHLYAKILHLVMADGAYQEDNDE

[5] = target: Dual specificity mitogen-activated protein kinase kinase 1 (Homo sapiens, UniProt Q02750); experiment: Inhibition of recombinant MEK1 (unknown origin) by cascade reaction assay
[6] = target: Mitogen-activated protein kinase 1 (Homo sapiens, UniProt P28482); experiment: Inhibition of recombinant ERK2 (unknown origin) by FRET-based Z'-LYTE assay
[7] = target: AMP-activated protein kinase (AMPK) alpha-1/beta-1/gamma-1 (Homo sapiens, UniProt P54619+Q13131+Q9Y478); experiment: Inhibition of recombinant AMPK A1/B1/G1 (unknown origin) by FRET-based Z'-LYTE assay; assay type: protein-complex assay
[8] = target: Ribosomal protein S6 kinase beta-1 (Homo sapiens, UniProt P23443); experiment: Inhibition of recombinant RPS6K1 (unknown origin) by FRET-based Z'-LYTE assay
[9] = target: RAC-beta serine/threonine-protein kinase (Homo sapiens, UniProt P31751); experiment: Inhibition of recombinant AKT2 (unknown origin) by FRET-based Z'-LYTE assay
[10] = target: T2, Inhibitor of nuclear factor kappa-B kinase subunit beta (Homo sapiens, UniProt O14920); experiment: Inhibition of recombinant IKBKB (unknown origin) by FRET-based Z'-LYTE assay
T2 sequence (O14920 whole entry): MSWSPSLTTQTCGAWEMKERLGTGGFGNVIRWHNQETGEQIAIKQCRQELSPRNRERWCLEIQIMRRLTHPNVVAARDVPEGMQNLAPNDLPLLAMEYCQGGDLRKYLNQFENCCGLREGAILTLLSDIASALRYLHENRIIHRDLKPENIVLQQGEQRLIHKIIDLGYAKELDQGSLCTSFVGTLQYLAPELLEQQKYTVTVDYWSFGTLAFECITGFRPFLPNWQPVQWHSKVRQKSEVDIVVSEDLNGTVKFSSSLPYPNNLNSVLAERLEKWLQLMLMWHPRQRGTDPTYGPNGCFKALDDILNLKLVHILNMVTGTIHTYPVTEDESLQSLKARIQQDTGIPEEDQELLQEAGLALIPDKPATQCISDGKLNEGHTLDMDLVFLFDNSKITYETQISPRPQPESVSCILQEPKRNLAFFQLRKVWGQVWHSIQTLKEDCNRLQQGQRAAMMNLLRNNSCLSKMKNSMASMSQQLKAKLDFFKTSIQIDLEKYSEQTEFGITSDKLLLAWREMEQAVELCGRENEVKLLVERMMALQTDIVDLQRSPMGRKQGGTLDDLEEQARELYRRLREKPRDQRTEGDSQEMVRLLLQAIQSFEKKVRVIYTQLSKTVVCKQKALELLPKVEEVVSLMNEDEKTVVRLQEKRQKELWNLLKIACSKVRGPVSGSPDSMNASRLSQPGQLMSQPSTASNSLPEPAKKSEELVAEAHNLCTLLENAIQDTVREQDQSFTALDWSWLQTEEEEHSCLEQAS

[11] = target: RAC-alpha serine/threonine-protein kinase (Homo sapiens, UniProt P31749); experiment: Inhibition of recombinant AKT1 (unknown origin) by FRET-based Z'-LYTE assay
[12] = target: RAF proto-oncogene serine/threonine-protein kinase (Homo sapiens, UniProt P04049); experiment: Inhibition of recombinant RAF1 (unknown origin) by cascade reaction assay
RAF proto-oncogene serine/threonine-protein kinase, sequence (P04049 whole entry): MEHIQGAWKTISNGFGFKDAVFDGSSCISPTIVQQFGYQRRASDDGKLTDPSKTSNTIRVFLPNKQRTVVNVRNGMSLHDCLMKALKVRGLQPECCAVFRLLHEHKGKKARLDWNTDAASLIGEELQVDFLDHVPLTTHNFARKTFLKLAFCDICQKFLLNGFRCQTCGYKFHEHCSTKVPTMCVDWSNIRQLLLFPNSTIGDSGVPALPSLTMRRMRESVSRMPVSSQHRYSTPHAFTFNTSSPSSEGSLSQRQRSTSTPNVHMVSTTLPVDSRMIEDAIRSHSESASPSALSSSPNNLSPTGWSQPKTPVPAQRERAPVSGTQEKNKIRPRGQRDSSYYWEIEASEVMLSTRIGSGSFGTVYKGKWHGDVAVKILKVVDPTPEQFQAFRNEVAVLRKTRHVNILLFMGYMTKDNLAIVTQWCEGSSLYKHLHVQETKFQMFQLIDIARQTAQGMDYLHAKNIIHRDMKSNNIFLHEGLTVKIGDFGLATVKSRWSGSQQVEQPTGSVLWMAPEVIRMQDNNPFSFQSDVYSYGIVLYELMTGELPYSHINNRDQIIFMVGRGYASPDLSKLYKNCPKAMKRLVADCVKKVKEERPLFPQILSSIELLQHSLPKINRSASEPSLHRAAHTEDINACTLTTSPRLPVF

Ribosomal protein S6 kinase beta-1, sequence (P23443 whole entry): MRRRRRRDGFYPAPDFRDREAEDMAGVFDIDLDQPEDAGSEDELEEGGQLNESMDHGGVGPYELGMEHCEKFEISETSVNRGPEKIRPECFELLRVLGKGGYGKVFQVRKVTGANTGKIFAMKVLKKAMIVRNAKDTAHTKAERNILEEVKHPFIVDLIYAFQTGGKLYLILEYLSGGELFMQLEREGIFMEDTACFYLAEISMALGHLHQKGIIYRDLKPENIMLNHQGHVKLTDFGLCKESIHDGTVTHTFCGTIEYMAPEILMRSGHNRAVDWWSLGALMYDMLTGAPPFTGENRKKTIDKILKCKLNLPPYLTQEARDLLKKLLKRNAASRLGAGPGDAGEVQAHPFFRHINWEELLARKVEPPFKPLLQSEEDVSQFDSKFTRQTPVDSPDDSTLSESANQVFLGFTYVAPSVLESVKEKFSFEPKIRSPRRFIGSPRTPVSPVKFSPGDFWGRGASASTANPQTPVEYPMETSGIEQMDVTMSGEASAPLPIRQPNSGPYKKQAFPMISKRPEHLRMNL
MAP kinase-activated protein kinase 2, sequence (P49137 whole entry): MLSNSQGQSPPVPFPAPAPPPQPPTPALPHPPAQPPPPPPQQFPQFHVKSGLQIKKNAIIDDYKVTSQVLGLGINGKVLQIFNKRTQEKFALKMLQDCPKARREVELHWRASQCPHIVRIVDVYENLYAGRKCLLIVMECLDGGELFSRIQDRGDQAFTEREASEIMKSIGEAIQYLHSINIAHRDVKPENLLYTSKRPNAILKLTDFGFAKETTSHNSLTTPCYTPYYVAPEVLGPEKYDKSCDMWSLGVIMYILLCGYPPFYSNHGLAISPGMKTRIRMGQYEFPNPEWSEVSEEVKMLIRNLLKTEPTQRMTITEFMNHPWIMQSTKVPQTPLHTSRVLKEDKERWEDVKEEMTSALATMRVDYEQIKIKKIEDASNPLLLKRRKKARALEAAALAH
Mitogen-activated protein kinase 1, sequence (P28482 whole entry): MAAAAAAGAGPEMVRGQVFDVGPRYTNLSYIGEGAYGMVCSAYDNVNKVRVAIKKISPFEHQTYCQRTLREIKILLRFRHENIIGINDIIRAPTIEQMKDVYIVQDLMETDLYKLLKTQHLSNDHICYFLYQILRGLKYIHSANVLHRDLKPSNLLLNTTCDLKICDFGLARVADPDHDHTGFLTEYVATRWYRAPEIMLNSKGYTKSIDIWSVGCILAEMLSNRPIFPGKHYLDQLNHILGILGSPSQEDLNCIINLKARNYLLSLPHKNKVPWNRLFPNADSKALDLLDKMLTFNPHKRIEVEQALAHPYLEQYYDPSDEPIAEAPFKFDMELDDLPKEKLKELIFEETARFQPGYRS
RAC-beta serine/threonine-protein kinase, sequence (P31751 whole entry): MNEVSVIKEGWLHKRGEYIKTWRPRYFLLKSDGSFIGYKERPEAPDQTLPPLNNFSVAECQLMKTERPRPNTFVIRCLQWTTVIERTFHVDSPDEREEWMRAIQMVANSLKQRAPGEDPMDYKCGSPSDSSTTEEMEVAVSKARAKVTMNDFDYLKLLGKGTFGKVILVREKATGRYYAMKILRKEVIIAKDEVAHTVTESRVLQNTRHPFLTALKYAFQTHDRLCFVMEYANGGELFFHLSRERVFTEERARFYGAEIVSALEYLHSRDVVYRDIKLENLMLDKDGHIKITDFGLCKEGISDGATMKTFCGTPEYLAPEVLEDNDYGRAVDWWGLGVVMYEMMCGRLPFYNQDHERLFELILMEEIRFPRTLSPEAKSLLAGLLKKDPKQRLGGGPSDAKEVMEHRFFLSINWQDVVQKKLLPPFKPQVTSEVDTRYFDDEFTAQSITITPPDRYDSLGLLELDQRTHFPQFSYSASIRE
Mitogen-activated protein kinase 14, sequence (Q16539 whole entry): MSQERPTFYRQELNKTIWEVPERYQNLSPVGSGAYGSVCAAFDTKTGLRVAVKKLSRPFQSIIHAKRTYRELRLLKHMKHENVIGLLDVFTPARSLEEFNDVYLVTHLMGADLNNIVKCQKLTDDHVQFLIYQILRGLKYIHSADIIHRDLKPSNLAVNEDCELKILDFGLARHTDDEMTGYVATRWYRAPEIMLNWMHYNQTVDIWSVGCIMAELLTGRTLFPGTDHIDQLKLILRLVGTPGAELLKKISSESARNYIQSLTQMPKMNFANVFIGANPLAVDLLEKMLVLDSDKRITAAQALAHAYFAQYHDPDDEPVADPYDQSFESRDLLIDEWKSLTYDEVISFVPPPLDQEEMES
RAC-alpha serine/threonine-protein kinase, sequence (P31749 whole entry): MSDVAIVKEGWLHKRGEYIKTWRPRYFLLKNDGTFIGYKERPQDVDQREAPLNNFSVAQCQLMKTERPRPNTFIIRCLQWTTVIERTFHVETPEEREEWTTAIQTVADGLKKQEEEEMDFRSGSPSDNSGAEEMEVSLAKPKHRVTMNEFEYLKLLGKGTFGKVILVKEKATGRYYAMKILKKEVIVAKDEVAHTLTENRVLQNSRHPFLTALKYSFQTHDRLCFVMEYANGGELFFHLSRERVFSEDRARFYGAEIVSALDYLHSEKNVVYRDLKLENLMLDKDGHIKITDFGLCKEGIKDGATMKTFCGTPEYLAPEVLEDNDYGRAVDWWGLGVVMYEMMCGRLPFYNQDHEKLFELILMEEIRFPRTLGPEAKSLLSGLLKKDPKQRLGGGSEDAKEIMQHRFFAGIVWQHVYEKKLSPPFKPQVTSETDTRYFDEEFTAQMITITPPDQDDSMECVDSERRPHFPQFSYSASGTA
Vascular endothelial growth factor receptor 2, sequence (P35968 whole entry): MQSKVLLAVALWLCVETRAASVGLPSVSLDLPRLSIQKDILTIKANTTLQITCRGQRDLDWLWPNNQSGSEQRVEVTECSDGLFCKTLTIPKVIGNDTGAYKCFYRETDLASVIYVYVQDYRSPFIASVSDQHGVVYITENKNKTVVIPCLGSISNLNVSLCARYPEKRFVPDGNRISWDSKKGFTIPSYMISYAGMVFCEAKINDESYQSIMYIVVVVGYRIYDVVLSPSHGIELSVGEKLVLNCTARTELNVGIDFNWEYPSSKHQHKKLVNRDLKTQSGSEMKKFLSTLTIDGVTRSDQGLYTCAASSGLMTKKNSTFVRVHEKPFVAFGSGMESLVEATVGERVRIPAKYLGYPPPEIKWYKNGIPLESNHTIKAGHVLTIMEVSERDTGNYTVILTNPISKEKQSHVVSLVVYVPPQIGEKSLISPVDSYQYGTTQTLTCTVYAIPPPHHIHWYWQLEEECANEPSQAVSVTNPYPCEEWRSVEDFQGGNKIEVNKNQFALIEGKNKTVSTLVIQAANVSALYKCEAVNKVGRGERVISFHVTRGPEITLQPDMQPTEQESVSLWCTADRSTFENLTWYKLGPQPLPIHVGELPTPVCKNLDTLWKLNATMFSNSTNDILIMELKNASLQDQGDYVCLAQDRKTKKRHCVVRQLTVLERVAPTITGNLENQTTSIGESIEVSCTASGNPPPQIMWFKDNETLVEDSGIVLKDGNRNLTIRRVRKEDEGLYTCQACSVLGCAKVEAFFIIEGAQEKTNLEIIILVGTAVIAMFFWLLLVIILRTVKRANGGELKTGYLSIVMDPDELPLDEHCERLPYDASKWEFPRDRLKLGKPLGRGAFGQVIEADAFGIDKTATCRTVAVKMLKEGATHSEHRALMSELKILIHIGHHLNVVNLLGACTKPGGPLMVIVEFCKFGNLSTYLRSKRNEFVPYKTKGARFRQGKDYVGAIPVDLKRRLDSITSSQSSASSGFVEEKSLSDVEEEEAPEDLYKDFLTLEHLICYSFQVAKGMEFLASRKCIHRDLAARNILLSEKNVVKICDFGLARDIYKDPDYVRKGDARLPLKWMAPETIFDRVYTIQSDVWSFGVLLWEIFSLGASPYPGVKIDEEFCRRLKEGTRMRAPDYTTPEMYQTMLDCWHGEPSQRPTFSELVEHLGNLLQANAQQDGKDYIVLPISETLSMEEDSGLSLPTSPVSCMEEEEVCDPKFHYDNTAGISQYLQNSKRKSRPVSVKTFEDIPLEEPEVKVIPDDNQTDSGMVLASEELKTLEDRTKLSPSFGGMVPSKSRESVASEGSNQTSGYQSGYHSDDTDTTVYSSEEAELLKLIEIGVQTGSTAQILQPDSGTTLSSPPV
Dual specificity mitogen-activated protein kinase kinase 1, sequence (Q02750 whole entry): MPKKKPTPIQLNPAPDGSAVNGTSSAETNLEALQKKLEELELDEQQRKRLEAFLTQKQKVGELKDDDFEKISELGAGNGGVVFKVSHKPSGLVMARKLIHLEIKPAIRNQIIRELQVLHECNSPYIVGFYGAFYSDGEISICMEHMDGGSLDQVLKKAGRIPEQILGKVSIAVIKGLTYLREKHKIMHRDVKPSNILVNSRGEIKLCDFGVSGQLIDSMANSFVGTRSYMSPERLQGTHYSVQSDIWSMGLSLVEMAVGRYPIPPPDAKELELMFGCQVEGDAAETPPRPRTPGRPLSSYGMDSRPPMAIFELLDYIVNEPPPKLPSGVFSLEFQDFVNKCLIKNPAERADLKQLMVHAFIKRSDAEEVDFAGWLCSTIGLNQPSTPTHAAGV

Row | IC50 [1] | IC50 [2] | IC50 [3] | IC50 [4] | IC50 [5] | IC50 [6] | IC50 [7] | IC50 [8] | IC50 [9] | IC50 [10] | IC50 [11] | IC50 [12] | SMILES
1 | 9.8 µM | 1.3 µM | > 100 µM | 3.5 µM | 9 µM | 27 µM | 2.5 µM | 6 µM | 1.9 µM | 4 µM | 2.6 µM | – | CN1C/C(=C\c2ccccn2)C(=O)/C(=C/c2ccccn2)C1
2 | 16 µM | 6.5 µM | > 100 µM | 14 µM | 30 µM | 20 µM | 26 µM | 12 µM | 3.3 µM | 34 µM | 3.6 µM | 8.5 µM | O=C1/C(=C/c2ccccn2)CSC/C1=C\c1ccccn1
3 | > 100 µM | – | > 100 µM | – | – | > 100 µM | – | > 100 µM | > 100 µM | 15 µM | – | > 100 µM | CN1C/C(=C\c2ccccn2)C(=O)[C@@H](Cc2ccccn2)C1
4 | > 100 µM | – | > 100 µM | – | – | > 100 µM | – | > 100 µM | > 100 µM | 15 µM | – | > 100 µM | CN1C/C(=C\c2ccccn2)C(=O)[C@H](Cc2ccccn2)C1
